Reference: US20240093034A1, “FLUORESCENT DYES” (EXOPHARM LIMITED, priority 2020, published 2024)

Test system: MSC-EVs
Test: Dye labelling of MSC-EV preparations analysed by imaging flow cytometry (IFCM)
Procedure: MSC-EVs were prepared form human platelet lysate containing MSC-conditioned media by polyethylene glycol 6000 precipitation followed by ultracentrifugation, as described previously (Borger, V. et al, 2020, Scaled Isolation of Mesenchymal Stem/Stromal Cell-Derived Extracellular Vesicles. Curr Protoc Stem Cell Biol 55, e128; Kordelas et al., 2014, MSC-derived exosomes: a novel tool to treat therapy-refractory graft-versus-host disease. Leukemia 28, 970-973; Ludwig et al., 2018, Precipitation with polyethylene glycol followed by washing and pelleting by ultracentrifugation enriches extracellular vesicles from tissue culture supernatants in small and large scales. J Extracell Vesicles 7, 1528109). Conditioned media were harvested every 48 h. Obtained MSC-EV preparations were diluted in NaCl-HEPES buffer (Sigma-Aldrich, Taufkirchen, Germany) such that 1 mL of final samples contained the preparation yield of the conditioned media of approximately 4.0×10^7 cells.
The staining with CFSE (Thermo Fisher Scientific, Darmstadt, Germany) was based on the manufacturer's protocol. Slight modifications were required to reduce the signal from unbound CFSE. Briefly, the CFSE stock solution was diluted to a working solution of 10 μM CFSE. The solution was centrifuged three times for 10 min at 17,000 × g. Subsequently, 25 μL of MSC-EV preparations, corresponding to the amount of EVs derived from 1×10^6 MSCs, were incubated with the centrifuged CFSE solution for 20 min at 37° C. The sample was diluted 1:20 to a final volume of 1 mL prior to analysis.
The staining of MSC-EV preparations with Calcein AM followed the manufacturer's instructions. Briefly, 25 μL of MSC-EV preparations were incubated with 25 μL of a 20 μM solution of Calcein AM (Thermo Fisher Scientific) for 40 min at 37° C. The sample was diluted 1:20 to a final volume of 1 mL to reduce background noise, avoiding the requirement of a washing step.
The staining of MSC-EV preparations with BODIPY-TR-Ceramide followed the manufacturer's instructions. Briefly, 25 μL of the MSC-EV preparation, corresponding to EVs purified from […], were incubated with 25 μL of a 20 μM solution of BODIPY TR Ceramide (Thermo Fisher Scientific) for 20 min at 37° C. 450 μL of 0.9% NaCl with 10mM HEPES (0.9% NaCl, Melsungen, B. Braun; HEPES, Thermo Fisher Scientific) buffer was added and the EVs were washed by using a Centrifugal Concentrator (Vivaspin 500; Sartorius, Gottingen, Germany). The retentate was adjusted to 500 μL prior to analysis.
The staining of MSC-EV preparations with PKH67 followed the manufacturer's instructions for labeling EVs (Thermo Fisher Scientific). Briefly, using 200 μL of given MSC-EV preparations, corresponding to EVs purified from 8×10^6 cells, the solution was adjusted with Diluent C to a final volume of 1 mL. […]

Substance: Calcein AM [reference compound]
- labelling of sEVs in MSC-EV preparations (conclusion) (IFCM, with anti-CD9, anti-CD63, anti-CD81 counterstaining where done): do not Label
- labelled objects in MSC-EV preparations (FIG. 8) (dye + MSC-EVs): failed to label any detectable objects
